These results are taken from PMC7047272 (ACS Central Science, 2020).

Structures are written as SMILES.

The target of experiment [1] is β5 of human 20S constitutive proteasome (CP) (Homo sapiens, UniProt P28074). The experiment can be described thus: Fluorogenic substrate hydrolysis, chymotrypsin-like activity. The format is biochemical.
In experiment [2] the target is β5i of human 20S immunoproteasome (IP) (Homo sapiens, UniProt P28062). The description is as above. Type of experiment: biochemical.
Experiment [3] deals with β5 of mouse 20S constitutive proteasome (CP) (Mus musculus, UniProt O55234). Described as above. Type of experiment: biochemical.
The target of experiment [4] is β5i of mouse 20S immunoproteasome (IP) (Mus musculus, UniProt P28063). Put plainly: biochemical.
Experiment [5] deals with β2 of human 20S constitutive proteasome (CP) (Homo sapiens, UniProt Q99436). Put plainly: Fluorogenic substrate hydrolysis, trypsin-like activity. Type of experiment: biochemical.
The target of experiment [6] is β2i of human 20S immunoproteasome (IP) (Homo sapiens, UniProt P40306). The experiment is described as above. The format is biochemical.
Experiment [7] deals with β2 of mouse 20S constitutive proteasome (CP) (Mus musculus, UniProt P70195). The format is biochemical. Conditions: at concentrations up to 1 μM.
Experiment [8] addresses β2i of mouse 20S immunoproteasome (IP) (Mus musculus, UniProt O35955). Put plainly: biochemical. The format is biochemical.
The target of experiment [9] is β1i (LMP2) of mouse 20S immunoproteasome (IP) (Mus musculus, UniProt P28076). Put plainly: biochemical.
Experiment [10] relates to chymotrypsin-like activity in live LCL721.145 cells (containing immunoproteasome). Type of experiment: cell-based, human. Conditions: MeO-Suc-GLF-AMC, up to 1 μM.

In general, IC50 refers to the midpoint of a concentration-inhibition curve.

`CCCCCCC/C=C/C=C/C(=O)N[C@H](C(=O)N[C@H]1C[C@@H](O)CCNC(=O)/C=C/[C@H](C)NC1=O)[C@@H](C)O` [GlbA, glidobactin A]: the half-maximal inhibitory concentration (IC50) in [1] was found to be 0.0036 µM; in experiment [2], 0.025 µM; in [3], 0.00065 µM; in experiment [4] it was 0.0011 µM; in experiment [5] it was 0.015 µM; in [6] it was 0.042 µM. The results for the IC50 in [8] and in [9] were 0.0014 µM and 0.25 µM, respectively. In addition, in experiment [7], the “effect on β2 of the constitutive proteasome” value is given as “almost unaffected”. The “selectivity β2/β2i” value in experiment [8] is greater than 714. In experiment [10], the “inhibition of chymotrypsin-like activity in live cells (cell permeability)” value was “inactive”.

With `CCCCCCC/C=C/C=C/C(=O)N[C@H](C(=O)N[C@H]1CCCCNC(=O)/C=C/[C@H](C)NC1=O)[C@@H](C)O` [LumA, luminmycin A], the 50% inhibitory concentration (IC50) in experiment [1] was determined as 0.039 µM; in experiment [2] it was 1.6 µM; in experiment [3], 0.032 µM; in experiment [4] it was 0.0089 µM; in experiment [5] it was 0.26 µM; in experiment [6], 0.17 µM. The “inhibition of chymotrypsin-like activity in live cells (cell permeability)” value in experiment [10] was “inactive”.
